Results: PMC7253571, “Cucurbitane-Type Triterpene Glycosides from Momordica charantia and Their α-Glucosidase Inhibitory Activities” (Natural Products and Bioprospecting, 2020)

The molecules below were run against α-glucosidase (assay: α-glucosidase inhibition assay (PNPG substrate, absorbance at 405 nm)). Conditions: substrate PNPG 2.5 mM, enzyme 1.0 U/mL, PPBS pH 6.86, 37 °C, triplicate; read-out: α-Glucosidase inhibitory activity IC50.
Type: biochemical
Description: UV spectra were recorded on a UV-2401PC spectrometer (Shimadzu, Kyoto, Japan). Optical rotations were measured in methanol on JASCO P-1020 digital polarimeter (Jasco, Tokyo, Japan). IR spectra were scanned on a Bruker Tensor-27 Fourier transform infrared spectrometer with KBr pellets (Bruker, German). High-resolution (HR) ESI mass spectra data were measured on a Waters API QSTAR Pulsar spectrometer. 1D and 2D NMR spectra were obtained in pyridine-d5 on Bruker Ascend-400, 600 and 800 MHz NMR spectrometers with tetramethylsilane (TMS) as internal standard (Bruker, Zurich, Switzerland). Column chromatography (CC) was performed on macroporous resin (D-101, Tianjin, China), Lichroprep RP-18 (Merck, German), sephadex LH-20 (Pharmacia, USA), silica gel (200–300 mesh, Qingdao, China), and Semi-preparative HPLC was performed on an Agilent 1260 liquid chromatography system equipped with a ZORBAX SB-C18 column (5 μm, 9.4 × 250 mm, 3.0 mL/min) and a DAD detector. Fractions were detected by TLC, and spots were visualized by spraying with 10% H2SO4 in EtOH, followed by heating. α-glucosidase inhibitory activity was evaluated on the basis of the ability of the compounds to decrease glucosidase activity and then inhibit the breaking of glycosidic bonds in p-nitrophenyl-α-D-glucopyranoside (PNPG). Water was purchased from wahaha group co. LTD. Acetonitrile (chromatographic grade) was purchased from OCEANPAK (Sweden). Common organic solvents are industrial grade, used after re-distillation. PNPG was obtained from Sigma Chemical Co. (St. Louis, Mo, USA). α-glucosidase was purchased from Shanghai yuanye biotechnology Co., Ltd. Potassium phosphate buffer solution (PPBS) was obtained from Shanghai Yidian Scientific Instrument Co., Ltd. 96-well plates was purchased from Nest biotechnology co., LTD.
The α-glucosidase inhibition assay was performed according to the method adapted from the literature with slight modifications. α-glucosidase can cut glycosidic bonds in the PNPG to produce 4-nitrophenol (yellow), then measured its absorbance can determine the activity of enzyme. The test samples and ursolic acid (positive control) were dissolved in dimethylsulfoxide (DMSO), and then diluted with PPBS (pH 6.86) to the required concentration. The α-glucosidase (1.0 U/mL) and substrate (PNPG, 2.5 mM) were dissolved in PPBS. Sample wells included 60 μL of PPBS, 10 μL of test substances, 30 μL of enzyme stock solution, and incubated at 37 °C for 10 min. After the pre-incubation phase, 40 μL of PNPG solution was added and the mixture was incubated for another 20 min at 37 °C. Finally, 80 μL Na2CO3 (0.2 M) solution was added to the sample wells to stop the reaction. The absorbance of the reaction mixture was recorded at 405 nm using a microplate reader. All samples were measured in triplicate. The inhibition rate (%) was calculated by the following formula: Inhibition (%) = [1 − (Asample/Acontrol)] × 100.

**Q.** How did the IC50 turn out when COC(C=C(C)C)CC(C)C1CCC2(C)C3C=CC45OC(OC)C3(CCC12C)C4CCC(OC1OC(CO)C(O)C(O)C1O)C5(C)C [Compound 1, (19S,23R)-5β,19-epoxy-19,23-dimethoxycucurbita-6,24-dien-3β-ol 3-O-β-D-allopyranoside] was run?
**A.** Its IC50 is > 100 µM.

**Q.** With COC(C=C(C)C)CC(C)C1CCC2(C)C3C=CC45OC(OC)C3(CCC12C)C4CCC(OC1OC(CO)C(O)C(O)C1O)C5(C)C [Compound 2, (19S,23R)-5β,19-epoxy-19,23-dimethoxycucurbita-6,24-dien-3β-ol 3-O-β-D-glucopyranoside] as the molecule, how does the IC50 read?
**A.** Its IC50 is 63.3 ± 3.04 µM.

**Q.** For CO[C@H]1O[C@]23C=C[C@@H]4[C@@]1(CC[C@]1(C)[C@@H]([C@H](C)C[C@@H](C=C(C)C)OC)CC[C@@]41C)C2CC[C@H](O[C@@H]1O[C@H](CO)[C@@H](O)[C@@H](O)[C@H]1O)C3(C)C (stereo partly drawn) [Compound 3, (19S,23S)-5β,19-epoxy-19,23-dimethoxycucurbita-6,24-dien-3β-ol 3-O-β-D-allopyranoside], which IC50 is on record?
**A.** The IC50 was > 100 µM.

**Q.** For CC(C)=CC=CC(C)C1CCC2(C)C3C=CC45OCC3(CCC12C)C4CCC(OC1OC(CO)C(O)C(O)C1O)C5(C)C [Compound 4, 5β,19-epoxy-cucurbita-6,22E,24-trien-3β-ol 3-O-β-D-allopyranoside], which IC50 is on record?
**A.** Its IC50 is > 100 µM.

**Q.** How did the IC50 turn out when COC1OC23C=CC4C1(CCC1(C)C(C(C)CC=CC(C)(C)O)CCC41C)C2CCC(OC1OC(CO)C(O)C(O)C1O)C3(C)C [Compound 5, 19(S)-methoxy-5β,19-epoxycucurbita-6,23-dien-3β,25-diol 3-O-β-D-glucopyranoside] was run?
**A.** The IC50 was 59.1 ± 4.67 µM.

**Q.** For C=C(C)/C=C/C[C@@H](C)[C@H]1CC[C@@]2(C)[C@@H]3C=C[C@@]45O[C@@H](OC)[C@]3(CC[C@]12C)C4CC[C@H](O[C@@H]1O[C@H](CO)[C@@H](O)[C@@H](O)[C@H]1O)C5(C)C (stereo partly drawn) [Compound 6, (19R,23E)-5β,19-epoxy-19-methoxycucurbita-6,23,25-trien-3β-ol 3-O-β-D-allopyranoside], which IC50 is on record?
**A.** Its IC50 is > 100 µM.

**Q.** For C=C(C)/C=C/C[C@@H](C)[C@H]1CC[C@@]2(C)[C@@H]3C=C[C@@]45O[C@@H](OC)[C@]3(CC[C@]12C)[C@@H]4CC[C@H](O[C@@H]1O[C@H](CO)[C@@H](O)[C@H](O)[C@H]1O)C5(C)C [Compound 7, charantoside I], which IC50 is on record?
**A.** Its IC50 is 35.1 ± 4.15 µM.

**Q.** C=C(C)/C=C/C[C@@H](C)[C@H]1CC[C@@]2(C)[C@@H]3C=C[C@@]45OC[C@]3(CC[C@]12C)[C@@H]4CC[C@H](O[C@@H]1O[C@H](CO)[C@@H](O)[C@H](O)[C@H]1O)C5(C)C [Compound 8, charantoside III] was tested. Which IC50 did it give?
**A.** The IC50 was 36.4 ± 3.03 µM.

**Q.** For COC(C)(C)/C=C/C[C@@H](C)[C@H]1CC[C@@]2(C)[C@@H]3[C@@H](O[C@@H]4O[C@H](CO)[C@@H](O)[C@H](O)[C@H]4O)C=C4C(CC[C@H](O)C4(C)C)[C@]3(C=O)CC[C@]12C (stereo partly shown) [Compound 9, momordicoside K], which IC50 is on record?
**A.** The IC50 was 28.4 ± 2.08 µM.

**Q.** Which IC50 does the source give for CO[C@H]1C=C2C(CC[C@H](O[C@@H]3O[C@H](CO)[C@@H](O)[C@@H](O)[C@H]3O)C2(C)C)[C@]2(C=O)CC[C@]3(C)[C@@H]([C@H](C)C/C=C/C(C)(C)OC)CC[C@@]3(C)[C@H]12 (stereo partly drawn) [Compound 10, 7β,25-dimethoxycucurbita-5(6),23(E)-dien-19-al 3-O-β-D-allopyranoside] here?
**A.** Its IC50 is > 100 µM.
